Data reported in US11109593B2, “Isoxazolin-5-one derivative and herbicide containing same as active ingredient” (HOKKO CHEMICAL INDUSTRY CO., LTD., priority 2017, dated 2021).

Assays:
Format in all cases: in vivo
Echinochloa crus-galli [1] = experiment: Test Example 1: herbicidal effect test by treatment of rice paddy soil (immediately after seeding); conditions: 120 g/10a active ingredient, dry weight vs untreated area, 14 days after treatment
Outline: (§1)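 Values are herbicidal rates (%) derived from average plant dry weight in treated versus untreated pots 14 days after treatment, run in duplicate. Treatment was a water-diluted emulsion dropped into flooded paddy soil right after sowing, at 120 g active ingredient per 10 ares.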

Scirpus juncoides [2] = experiment: as above; conditions: 120 g/10a active ingredient, dry weight vs untreated area, 14 days after treatment
Outline: as §1

[3] = tested on: broad leaf weeds (Lindernia pyxidaria and Monochoria vaginalis); experiment: as above; conditions: 120 g/10a active ingredient, dry weight vs untreated area, 14 days after treatment
Outline: as §1

Echinochloa crus-galli [4] = experiment: Test Example 2: herbicidal effect test by treatment during growing period in paddy rice cultivation (seven days after seeding); conditions: 120 g/10a active ingredient, assessed 14 days after treatment, dry weight vs untreated area
Outline: (§2)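 Herbicidal rate = (1 − treated/untreated mean dry weight) × 100, scored 14 days after application, two replicates per rate. Treatment: diluted emulsion dropped onto paddy water seven days after sowing, 120 g active ingredient per 10 ares, in a glass greenhouse.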

Scirpus juncoides [5] = experiment: as above; conditions: 120 g/10a active ingredient, assessed 14 days after treatment, dry weight vs untreated area
Outline: as §2

[6] = tested on: broad leaf weeds (Lindernia pyxidaria and Monochoria vaginalis); experiment: as above; conditions: 120 g/10a active ingredient, assessed 14 days after treatment, dry weight vs untreated area
Outline: as §2

Amaranthus viridis [7] = experiment: Test Example 3: herbicidal effect test by treatment of dry field farming soil (one day after seeding); conditions: 120 g/10a active ingredient, evaluated 14 days after treatment
Outline: (§3)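 Seeds (20 each) mixed into top 1 cm of alluvium in pots, surface pressed. One day later, diluted emulsion sprayed onto soil, 100 L/10 a, 120 g a.i./10 a. Dry weight at 14 d vs untreated gave % herbicidal rate; n=2.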

Chenopodium album [8] = experiment: as above; conditions: 120 g/10a active ingredient, evaluated 14 days after treatment
Outline: as §3

Echinochloa crus-galli [9] = experiment: as above; conditions: 120 g/10a active ingredient, evaluated 14 days after treatment
Outline: as §3

southern crabgrass [10] = experiment: as above; conditions: 120 g/10a active ingredient, evaluated 14 days after treatment
Outline: as §3

Amaranthus viridis [11] = experiment: Test Example 4: herbicidal effect test by treatment of leave and stem in dry field farming (seven days after seeding); conditions: 120 g/10a active ingredient; emulsion sprayed seven days after seeding; evaluated 14 days after treatment
Outline: (§4)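 Duplicate pots were scored 14 days post-spray by dry weight, herbicidal rate = {1 − treated/untreated average dry weight} × 100. The water-diluted emulsion, equivalent to 120 g active ingredient per 10 ares in 100 L, was applied seven days after sowing 20 seeds each into the upper 1 cm of alluvial soil.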

Chenopodium album [12] = experiment: as above; conditions: 120 g/10a active ingredient; emulsion sprayed seven days after seeding; evaluated 14 days after treatment
Outline: as §4

Echinochloa crus-galli [13] = experiment: as above; conditions: 120 g/10a active ingredient; emulsion sprayed seven days after seeding; evaluated 14 days after treatment
Outline: as §4

southern crabgrass [14] = experiment: as above; conditions: 120 g/10a active ingredient; emulsion sprayed seven days after seeding; evaluated 14 days after treatment
Outline: as §4

Compound | Herbicidal rate (%) Echinochloa crus-galli (Echinochloa crus-galli [1]) | Herbicidal rate (%) Scirpus juncoides (Scirpus juncoides [2]) | Herbicidal rate (%) Lindernia pyxidaria [3] | Herbicidal rate (%) Monochoria vaginalis [3] | Herbicidal rate (%) Echinochloa crus-galli (Echinochloa crus-galli [4]) | Herbicidal rate (%) Scirpus juncoides (Scirpus juncoides [5]) | Herbicidal rate (%) Lindernia pyxidaria [6] | Herbicidal rate (%) Monochoria vaginalis [6] | herbicidal rate, Amaranthus viridis (Amaranthus viridis [7]) | herbicidal rate, Chenopodium album (Chenopodium album [8]) | herbicidal rate, Echinochloa crus-galli (Echinochloa crus-galli [9]) | herbicidal rate, southern crabgrass (southern crabgrass [10]) | herbicidal effect (herbicidal rate), Amaranthus viridis (Amaranthus viridis [11]) | herbicidal effect (herbicidal rate), Chenopodium album (Chenopodium album [12]) | herbicidal effect (herbicidal rate), Echinochloa crus-galli (Echinochloa crus-galli [13]) | herbicidal effect (herbicidal rate), southern crabgrass (southern crabgrass [14])
CCC(C)n1oc(=O)c(Cc2ccccc2N(C(=O)c2ccc(Cl)cc2)S(=O)(=O)C(F)(F)F)c1C (stereo not shown) [Compound 1-484] | 90% | 90% | 90% | 90% | 90% | 90% | 90% | 90% | 90% | 90% | 90% | 90% | 40% | 40% | 90% | 90%
CCC(C)n1oc(=O)c(Cc2ccccc2N(C(=O)c2ccc(C)cc2)S(=O)(=O)C(F)(F)F)c1C (stereo not shown) [Compound 1-494] | 90% | 90% | 90% | 90% | 90% | 90% | 90% | 90% | 90% | 90% | 90% | 90% | 40% | 40% | 90% | 90%
Cc1c(Cc2ccccc2N(C(=O)Cc2ccccc2)S(=O)(=O)C(F)(F)F)c(=O)on1C(C)(C)C [Compound 1-503] | 90% | 90% | 90% | 90% | 90% | 90% | 90% | 90% | 90% | 90% | 90% | 90% | 40% | 40% | 90% | 90%
CCC(C)n1oc(=O)c(Cc2ccccc2N(C(=O)Cc2ccccc2)S(=O)(=O)C(F)(F)F)c1C (stereo not shown) [Compound 1-504] | 90% | 90% | 90% | 90% | 90% | 90% | 90% | 90% | 90% | 90% | 90% | 90% | 40% | 40% | 90% | 90%
COCC(C)n1oc(=O)c(Cc2ccccc2N(C(=O)Cc2ccccc2)S(=O)(=O)C(F)(F)F)c1C (stereo not shown) [Compound 1-506] | 90% | 90% | 90% | 90% | 90% | 90% | 90% | 90% | 90% | 90% | 90% | 90% | 40% | 40% | 90% | 90%
CCC(C)n1oc(=O)c(Cc2ccccc2N(C(=O)C2CCCO2)S(=O)(=O)C(F)(F)F)c1C (stereo not shown) [Compound 1-522] | 90% | 90% | 90% | 90% | 90% | 90% | 90% | 90% | 90% | 90% | 90% | 90% | 40% | 40% | 90% | 90%
CCC(C)n1oc(=O)c(Cc2ccccc2N(C(=O)c2ccccn2)S(=O)(=O)C(F)(F)F)c1C (stereo not shown) [Compound 1-528] | 90% | 90% | 90% | 90% | 90% | 90% | 90% | 90% | 90% | 90% | 90% | 90% | 40% | 40% | 90% | 90%
COC(=O)N(c1ccccc1Cc1c(C)n(C(C)C)oc1=O)S(=O)(=O)C(F)(F)F [Compound 1-575] | 90% | 100% | 100% | 100% | 90% | 100% | 100% | 100% | 40% | 40% | 90% | 90% | 30% | 90% | 90% | 90%
COC(=O)N(c1ccccc1Cc1c(C)n(C(C)(C)C)oc1=O)S(=O)(=O)C(F)(F)F [Compound 1-576] | 90% | 90% | 90% | 90% | 90% | 90% | 90% | 90% | 90% | 90% | 90% | 90% | 40% | 40% | 90% | 90%
COC(=O)N(c1ccccc1Cc1c(C)n(CC(C)C)oc1=O)S(=O)(=O)C(F)(F)F [Compound 1-580] | 90% | 90% | 90% | 90% | 90% | 90% | 90% | 90% | 90% | 90% | 90% | 90% | 40% | 40% | 90% | 90%
